Measurements: patent US9096591B2, “Tetracyclic compounds” (Medivation Technologies, Inc., priority 2007, dated 2015)
Like-named read-outs stand apart in the source and are kept apart here.

Experiments:
[1] = molecular target: T1, human recombinant dopamine D2L receptor (Homo sapiens, UniProt P14416); assay: Dopamine D2L radioligand binding ([3H]Spiperone); conditions: for Inhibition of ligand binding, Dop. D2L: percent inhibition of specific binding; for inhibition at 1 µM: compounds screened at 1 μM, read-out: Inhibition of ligand binding, Dop. D2L (percent inhibition of specific binding)
T1 construct: expressed in transfected cells; host or cells: CHO cells
Method: (§1) Non-specific binding was estimated in the presence of 10 μM Haloperidol. Receptor proteins were filtered and washed, the filters were then counted to determine [^3H]Spiperone specifically bound. […] Biochemical assay results are presented as the percent inhibition of specific binding in Table 6.

[2] = molecular target: T2, human recombinant adrenergic α2B receptor (Homo sapiens, UniProt P18089); assay: Adrenergic α2B radioligand binding ([3H]Rauwolscine); parameters: Inhibition of ligand binding, Adren. alpha2B: concentration or dose not given beside the values; conditions: for Inhibition of ligand binding, Adren. alpha2B: percent inhibition of specific binding; for inhibition at 1 µM: compounds screened at 1 μM, read-out: Inhibition of ligand binding, Adren. alpha2B (percent inhibition of specific binding)
T2 construct: expressed in transfected cells; host or cells: CHO-K1 cells
T2 sequence (P18089 1-450): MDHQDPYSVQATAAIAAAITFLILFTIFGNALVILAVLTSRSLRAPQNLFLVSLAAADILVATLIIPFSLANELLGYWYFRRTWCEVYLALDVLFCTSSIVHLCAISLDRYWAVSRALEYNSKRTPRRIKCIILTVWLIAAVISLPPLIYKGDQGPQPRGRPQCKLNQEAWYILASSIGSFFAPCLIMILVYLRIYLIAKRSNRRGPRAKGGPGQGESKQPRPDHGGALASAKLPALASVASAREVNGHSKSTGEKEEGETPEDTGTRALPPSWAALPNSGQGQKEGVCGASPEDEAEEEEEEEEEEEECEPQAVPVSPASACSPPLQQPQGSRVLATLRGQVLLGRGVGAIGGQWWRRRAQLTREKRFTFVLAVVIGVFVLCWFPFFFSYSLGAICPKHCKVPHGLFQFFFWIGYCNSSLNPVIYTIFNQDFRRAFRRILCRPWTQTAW
In short: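 Membranes from CHO-K1 cells expressing the receptor, in 50 mM Tris-HCl pH 7.4 with 12.5 mM MgCl2, 1 mM EDTA, 0.2% BSA, incubated with compounds and 2.5 nM [3H]Rauwolscine for 60 minutes at 25 °C.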

[3] = molecular target: T3, human recombinant adrenergic α1D receptor (Homo sapiens, UniProt P25100); assay: Adrenergic α1D radioligand binding ([3H]Prozosin); parameters: Inhibition of ligand binding, Adren. alpha1D: concentration or dose not given beside the values; conditions: for Inhibition of ligand binding, Adren. alpha1D: percent inhibition of specific binding; for inhibition at 1 µM: compounds screened at 1 μM, read-out: Inhibition of ligand binding, Adren. alpha1D (percent inhibition of specific binding)
T3 construct: expressed in transfected cells; host or cells: HEK-293 cells
T3 sequence (P25100 1-572): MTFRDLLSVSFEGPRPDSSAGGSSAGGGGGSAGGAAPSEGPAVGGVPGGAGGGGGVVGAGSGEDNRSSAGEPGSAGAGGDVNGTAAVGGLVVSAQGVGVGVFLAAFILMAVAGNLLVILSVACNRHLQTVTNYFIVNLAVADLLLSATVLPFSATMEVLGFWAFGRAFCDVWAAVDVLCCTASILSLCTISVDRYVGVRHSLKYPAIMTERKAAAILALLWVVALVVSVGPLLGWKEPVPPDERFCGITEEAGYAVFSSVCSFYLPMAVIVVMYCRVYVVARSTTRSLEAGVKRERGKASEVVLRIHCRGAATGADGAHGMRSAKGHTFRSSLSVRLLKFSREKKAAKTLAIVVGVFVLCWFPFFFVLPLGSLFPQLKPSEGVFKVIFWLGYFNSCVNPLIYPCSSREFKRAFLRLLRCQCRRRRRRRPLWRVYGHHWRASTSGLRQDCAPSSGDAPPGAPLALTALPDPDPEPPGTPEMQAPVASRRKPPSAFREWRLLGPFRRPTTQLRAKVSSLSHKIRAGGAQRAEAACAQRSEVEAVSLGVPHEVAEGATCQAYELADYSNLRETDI
Method: as §1, with “Compounds of invention were incubated with 0.6 nM [^3H]Prozosin for 60 minutes at 25° C. Non-specific” for “Non-specific”, “phentolamine.” for “Haloperidol.”, “[^3H]Prozosin” for “[^3H]Spiperone”

[4] = molecular target: T4, human recombinant histamine H2 receptor (Homo sapiens, UniProt P25021); assay: Histamine H2 radioligand binding ([125I]Aminopotentidine); conditions: for inhibition at 0.1 µM: 0.1 μM compound
T4 construct: expressed in transfected cells; host or cells: CHO-K1 cells
In short: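 Test compounds were assessed for their ability to displace radioligand from the human recombinant histamine H2 receptor. Non-specific binding was determined in the presence of 3 μM Tiotidine, and results were expressed as percent inhibition of specific binding, with 1% DMSO serving as the vehicle.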

[5] = molecular target: T5, Serotonin (5-Hydroxytryptamine) 5-HT7 (Homo sapiens, UniProt P34969); assay: Serotonin 5-HT7 radioligand binding ([3H]LSD); parameters: Inhibition of ligand binding, Ser. 5-HT7: concentration or dose not given beside the values; conditions: for Inhibition of ligand binding, Ser. 5-HT7: percent inhibition of specific binding; for inhibition at 1 µM: compounds screened at 1 μM, read-out: Inhibition of ligand binding, Ser. 5-HT7 (percent inhibition of specific binding)
T5 construct: expressed in transfected cells; host or cells: CHO cells
Method: Lysergic acid diethylamide (LSD) for 2 hours at 25° C. […] Receptor proteins were filtered and washed, the filters were then counted to determine [^3H]LSD specifically bound. […] Biochemical assay results are presented as the percent inhibition of specific binding in Table 6.

[6] = 1 μM compound, 0.1 nM [125I]Aminopotentidine, read-out: Histamine Binding H2, percent inhibition of specific binding
[7] = percent inhibition of specific binding, screened at 1 μM, read-out: Inhibition of ligand binding, Hist. H2
[8] = 0.1 nM [125I]Aminopotentidine, read-out: Histamine Binding H2, percent inhibition of specific binding
[9] = compounds screened at 1 μM, read-out: Inhibition of ligand binding, Hist. H2 (percent inhibition of specific binding)

T1 sequence (P14416 whole entry): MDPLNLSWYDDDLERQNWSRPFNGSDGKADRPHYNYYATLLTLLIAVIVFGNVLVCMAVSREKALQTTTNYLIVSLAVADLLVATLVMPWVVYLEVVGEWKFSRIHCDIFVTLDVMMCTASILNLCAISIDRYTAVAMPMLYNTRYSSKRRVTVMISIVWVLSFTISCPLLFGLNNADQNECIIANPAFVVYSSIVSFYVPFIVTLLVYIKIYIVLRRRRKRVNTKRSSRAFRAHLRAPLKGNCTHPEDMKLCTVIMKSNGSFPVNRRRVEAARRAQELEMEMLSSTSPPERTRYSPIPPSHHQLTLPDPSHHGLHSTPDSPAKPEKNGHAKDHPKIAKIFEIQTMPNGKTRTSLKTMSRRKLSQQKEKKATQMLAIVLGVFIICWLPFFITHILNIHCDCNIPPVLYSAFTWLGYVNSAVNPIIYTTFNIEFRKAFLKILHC
T5 sequence (P34969 whole entry): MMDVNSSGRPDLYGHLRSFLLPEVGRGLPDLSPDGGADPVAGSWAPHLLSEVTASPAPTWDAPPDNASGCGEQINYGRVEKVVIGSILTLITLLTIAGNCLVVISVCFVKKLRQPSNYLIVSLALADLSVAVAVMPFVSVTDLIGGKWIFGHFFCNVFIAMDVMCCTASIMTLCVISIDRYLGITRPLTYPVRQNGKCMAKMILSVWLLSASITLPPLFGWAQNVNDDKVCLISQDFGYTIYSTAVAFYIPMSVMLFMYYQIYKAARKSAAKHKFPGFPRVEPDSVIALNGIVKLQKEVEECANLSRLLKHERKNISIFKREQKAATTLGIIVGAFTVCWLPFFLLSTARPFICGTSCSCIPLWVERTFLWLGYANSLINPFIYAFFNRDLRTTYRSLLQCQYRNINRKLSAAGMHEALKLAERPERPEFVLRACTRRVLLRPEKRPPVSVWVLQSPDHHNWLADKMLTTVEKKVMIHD
T4 sequence (P25021 whole entry): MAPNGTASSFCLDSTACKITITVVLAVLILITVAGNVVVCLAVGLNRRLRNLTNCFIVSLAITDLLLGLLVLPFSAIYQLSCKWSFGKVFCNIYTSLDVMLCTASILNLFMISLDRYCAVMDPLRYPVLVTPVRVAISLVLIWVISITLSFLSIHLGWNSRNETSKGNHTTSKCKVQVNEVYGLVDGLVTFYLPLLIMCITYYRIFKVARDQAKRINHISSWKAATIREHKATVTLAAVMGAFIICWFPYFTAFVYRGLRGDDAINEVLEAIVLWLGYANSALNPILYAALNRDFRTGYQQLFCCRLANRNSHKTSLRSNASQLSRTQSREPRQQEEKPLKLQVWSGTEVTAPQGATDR

`CCOC(=O)N1CCc2c(c3cc(C)ccc3n2CCc2ccccc2)C1` [Compound 24, ethyl 3,4-dihydro-8-methyl-5-phenethyl-1H-pyrido[4,3-b]indole-2(5H)-carboxylate] was tested, and the “Inhibition of ligand binding, Dop. D2L” value [1] was 3%, the “Inhibition of ligand binding, Adren. alpha2B” value (“Inhibition … Adren. alpha2B” below) [2] was −1% and the “Inhibition of ligand binding, Adren. alpha1D” value (shortened to “Inhibition … Adren. alpha1D”) [3] was 6%. For the same molecule, the inhibition at 1 µM [4, 6] was 13%, the inhibition at 1 µM [4, 7] was 13% and the “Inhibition of ligand binding, Ser. 5-HT7” value [5] was −2%.
With `CN1CCc2c(c3cc(Cl)ccc3n2CCc2ccccn2)C1` [Compound 30, 8-chloro-2,3,4,5-tetrahydro-2-methyl-5-(2-(pyridin-2-yl)ethyl)-1H-pyrido[4,3-b]indole] the “Inhibition of ligand binding, Dop. D2L” value [1] was 29%, the “Inhibition … Adren. alpha2B” value [2] was 102% and the “Inhibition … Adren. alpha1D” value [3] was 68%. For the same molecule, the inhibition at 1 µM [4, 6] was 34%, the inhibition at 1 µM [4, 7] was 34% and the “Inhibition of ligand binding, Ser. 5-HT7” value [5] was 99%.
With `Cc1ccc2c(c1)c1c(n2CCc2ccc(Cl)cc2)CCN(C)C1` [Compound 32, 5-(4-chlorophenethyl)-2,3,4,5-tetrahydro-2,8-dimethyl-1H-pyrido[4,3-b]indole] the “Inhibition of ligand binding, Dop. D2L” value [1] was 82%, the “Inhibition … Adren. alpha2B” value [2] was 110% and the “Inhibition … Adren. alpha1D” value [3] was 94%. For the same molecule, the inhibition at 0.3 µM ([4]; 0.3 μM compound, 0.1 nM [125I]Aminopotentidine, read-out: Histamine Binding H2, percent inhibition of specific binding) was 99%, the inhibition at 1 µM [4, 6] was 101% and the inhibition at 1 µM [4, 7] was 101%. For the same molecule, the “Inhibition of ligand binding, Ser. 5-HT7” value [5] was 101%.
For `Cc1ccc2c(c1)c1c(n2CCc2ccc(F)cc2)CCN(C)C1` [Compound 33, 5-(4-fluorophenethyl)-2,3,4,5-tetrahydro-2,8-dimethyl-1H-pyrido[4,3-b]indole], the “Inhibition of ligand binding, Dop. D2L” value [1] was 88%, the “Inhibition … Adren. alpha2B” value [2] was 100% and the “Inhibition … Adren. alpha1D” value [3] was 88%. For the same molecule, the inhibition at 0.1 µM [4, 8] was 41%, the inhibition at 1 µM [4, 6] was 91% and the inhibition at 1 µM [4, 7] was 91%. The “Inhibition of ligand binding, Ser. 5-HT7” value [5] was 91%.
For `CN1CCc2c(c3cc(Cl)ccc3n2CCc2ccccc2)C1` [Compound 36, 8-chloro-2,3,4,5-tetrahydro-2-methyl-5-phenethyl-1H-pyrido[4,3-b]indole], the “Inhibition of ligand binding, Dop. D2L” value [1] was 92%, the “Inhibition … Adren. alpha2B” value [2] was 104% and the “Inhibition … Adren. alpha1D” value [3] was 87%. The inhibition at 0.1 µM [4, 8] was 41%, the inhibition at 1 µM [4, 6] was 92% and the inhibition at 1 µM [4, 7] was 92%. The “Inhibition of ligand binding, Ser. 5-HT7” value [5] was 99%.
`Cc1ccc2c(c1)c1c(n2CCC2CCCCC2)CCN(C)C1` [Compound 163, 5-(2-cyclohexylethyl)-2,3,4,5-tetrahydro-2,8-dimethyl-1H-pyrido[4,3-b]indole] was tested, and the “Inhibition of ligand binding, Dop. D2L” value [1] was 36%, the “Inhibition … Adren. alpha2B” value [2] was 104% and the “Inhibition … Adren. alpha1D” value [3] was 49%. The inhibition at 1 µM [4, 6] was 88%, the inhibition at 1 µM [4, 7] was 88% and the “Inhibition of ligand binding, Ser. 5-HT7” value [5] was 95%.
Work on `Cc1ccc2c(c1)c1c(n2CCc2nc(-c3ccccc3)cs2)CCN(C)C1` [Compound C1-5] yielded an inhibition at 1 µM [1] of 36%, an inhibition at 1 µM [2] of 113% and an inhibition at 1 µM [3] of 92%. For the same molecule, the inhibition at 1 µM [4, 9] was 73% and the inhibition at 1 µM [5] was 93%.
Work on `COc1ccc2c(c1)c1c(n2CCc2nc(-c3ccccc3)cs2)CCN(C)C1` [Compound C1-6] yielded an inhibition at 1 µM [1] of 29%, an inhibition at 1 µM [2] of 110% and an inhibition at 1 µM [3] of 72%. It also gave an inhibition at 1 µM [4, 9] of 21% and an inhibition at 1 µM [5] of 57%.
With `CN1CCc2c(c3cc(F)ccc3n2CCc2nc(-c3ccccc3)cs2)C1` [Compound C1-7] the inhibition at 1 µM [1] was 25%, the inhibition at 1 µM [2] was 113% and the inhibition at 1 µM [3] was 66%. For the same molecule, the inhibition at 1 µM [4, 9] was 55% and the inhibition at 1 µM [5] was 90%.
In the case of `CN1CCc2c(c3ccccc3n2CCc2noc(-c3ccccc3)n2)C1` [Compound C4-1], the inhibition at 1 µM [1] is reported as 14%, the inhibition at 1 µM [2] is reported as 94% and the inhibition at 1 µM [3] is reported as 60%. For the same molecule, the inhibition at 1 µM [4, 9] was 47% and the inhibition at 1 µM [5] was 88%.
`Cc1ccc2c(c1)c1c(n2CCc2noc(-c3ccccc3)n2)CCN(C)C1` [Compound C4-4] gave an inhibition at 1 µM [1] of 46%, an inhibition at 1 µM [2] of 102% and an inhibition at 1 µM [3] of 92%. It also gave an inhibition at 1 µM [4, 9] of 68% and an inhibition at 1 µM [5] of 96%.
`CN1CCc2c(c3cc(Cl)ccc3n2CCc2noc(-c3ccccc3)n2)C1` [Compound C4-6] gave an inhibition at 1 µM [1] of 36%, an inhibition at 1 µM [2] of 94% and an inhibition at 1 µM [3] of 84%. For the same molecule, the inhibition at 1 µM [4, 9] was 68% and the inhibition at 1 µM [5] was 90%.
